For experiment [1], the target named is T1, Caspase-1 (Homo sapiens, UniProt P29466, D381E). Put plainly: Compound was tested for inhibitory activity against N-His (D381E) Interleukin -1 beta converting enzyme (combinatorially prepared compound).
In experiment [2] the target is T1, Caspase-1. The experiment can be described thus: Compound was tested for inhibitory activity against N-His (D381E) Interleukin -1 beta converting enzyme (resynthesized compound).
Experiment [3] concerns the target T1, Caspase-1. Put plainly: Compound was tested for binding affinity against N-His (D381E) Interleukin -1 beta converting enzyme.

SMILES strings stand for the structures.

T1 sequence (P29466 120-297 limits assumed): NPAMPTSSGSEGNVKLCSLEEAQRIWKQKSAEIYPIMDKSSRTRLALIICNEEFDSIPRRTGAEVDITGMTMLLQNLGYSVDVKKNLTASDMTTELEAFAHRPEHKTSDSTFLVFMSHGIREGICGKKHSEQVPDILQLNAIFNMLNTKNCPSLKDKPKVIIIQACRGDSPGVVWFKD
T1 sequence (P29466 317-404 D381E limits assumed): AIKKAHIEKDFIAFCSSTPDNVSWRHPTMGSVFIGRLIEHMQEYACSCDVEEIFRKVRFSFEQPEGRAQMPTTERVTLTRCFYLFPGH

Usually IC50 stands for the point on the concentration scale where inhibition reaches its midpoint. As to `O=C(O)C[C@H](NC(=O)OCc1ccccc1)C(=O)COC(=O)Cc1c(Cl)cccc1Cl`, the IC50 on Caspase-1 [1] was found to be 742 nM.

What is called Ki is the dissociation constant of the complex between target and ligand, obtained from inhibition or displacement. Higher therefore signals lower affinity. For `O=C(O)C[C@H](NC(=O)OCc1ccccc1)C(=O)COC(=O)CCc1ccccc1`, the IC50 at Caspase-1 [1] was 12000 nM; at Caspase-1 [2], 35000 nM. In addition, at Caspase-1 [3], the affinity corresponds to a Ki of 4500 nM.

Regarding `O=C(O)C[C@H](NC(=O)OCc1ccccc1)C(=O)COC(=O)Cc1c(Cl)ccc(Cl)c1Cl`, the IC50 on Caspase-1 [1] was 936 nM.

In the case of `CC(=O)NC(C(=O)N[C@@H](CC(=O)O)C(=O)COC(=O)Cc1c(Cl)ccc(Cl)c1Cl)C(C)C` (stereo partly specified), the IC50 on Caspase-1 [1] was found to be 5 nM; against Caspase-1 [2], 7 nM. The compound also displayed a Ki at Caspase-1 [3] of 113 nM.

`CC(=O)NC(C(=O)N[C@@H](CC(=O)O)C(=O)COC(=O)Cc1c(Cl)cccc1Cl)C(C)C` (stereo partly specified): the values for the IC50 at Caspase-1 [1] and against Caspase-1 [2] were 5 nM and 8 nM, respectively. At Caspase-1 [3], this compound gave a Ki of 82 nM.
